Span, Basal and Emin data for one compound are collected here from publication PMC7695835, “Pharmacological characterisation of novel adenosine A3 receptor antagonists” (Scientific Reports, 2020).

Molecules are shown by their SMILES. Changes are numbered by the printed parent chain. Read-outs that look alike come from different tables or passages of the source.

Assay [1] addresses T1, WT A3R (Homo sapiens, UniProt P0DMS8).
T1 sequence (P0DMS8 1-318): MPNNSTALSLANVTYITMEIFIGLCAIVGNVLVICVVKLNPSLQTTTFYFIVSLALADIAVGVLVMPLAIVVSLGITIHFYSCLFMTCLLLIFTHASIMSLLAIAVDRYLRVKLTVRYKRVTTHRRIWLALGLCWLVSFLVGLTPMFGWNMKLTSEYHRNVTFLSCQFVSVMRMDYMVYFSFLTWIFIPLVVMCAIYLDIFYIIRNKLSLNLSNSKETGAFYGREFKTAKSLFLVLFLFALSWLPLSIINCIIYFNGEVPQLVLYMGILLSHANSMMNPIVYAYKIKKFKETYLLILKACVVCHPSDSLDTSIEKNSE
In words: IB-MECA stimulated cAMP inhibition at WT A3R Flp-In-CHO, with Schild analysis. It counts as cell-based. The conditions noted are these: IB-MECA only; difference between Emin and basal.

Assay [2] addresses T1, WT A3R. The conditions noted are these: + DMSO.
The next assay has as its target T2, L90A A3R (Homo sapiens, UniProt P0DMS8, L90A).
T2 sequence (P0DMS8 1-318 L90A): T1 sequence (P0DMS8 1-318) with L90A
As to conditions: + DMSO.

Another assay addresses T3, V169A A3R (Homo sapiens, UniProt P0DMS8, V169A).
T3 sequence (P0DMS8 1-318 V169A): T1 sequence (P0DMS8 1-318) with V169A
The conditions noted are these: + DMSO.

Another assay addresses T4, M177A A3R (Homo sapiens, UniProt P0DMS8, M177A).
T4 sequence (P0DMS8 1-318 M177A): T1 sequence (P0DMS8 1-318) with M177A
As to conditions: + DMSO.

The next assay addresses T5, I249A A3R (Homo sapiens, UniProt P0DMS8, I249A).
T5 sequence (P0DMS8 1-318 I249A): T1 sequence (P0DMS8 1-318) with I249A
As to conditions: + DMSO.

A further assay has as its target T6, L264A A3R (Homo sapiens, UniProt P0DMS8, L264A).
T6 sequence (P0DMS8 1-318 L264A): T1 sequence (P0DMS8 1-318) with L264A
As to conditions: + DMSO.

Turning to `CNC(=O)[C@H]1O[C@@H](n2cnc3c(NCc4cccc(I)c4)ncnc32)[C@H](O)[C@@H]1O` [IB-MECA, (2S,3S,4R,5R)-3,4-dihydroxy-5-[6-[(3-iodophenyl)methylamino]purin-9-yl]-N-methyloxolane-2-carboxamide], the Span is 116.1 ± 3.5 on WT A3R [1]; 25.1 ± 2.0 on WT A3R [2]; 29.9 ± 1.8 on L90A A3R; 31.6 ± 2.0 on M177A A3R; 27.7 ± 1.3 on I249A A3R; 30.9 ± 2.2 on L264A A3R. Further, the Basal is recorded as 60.1 ± 0.9 %100 μM forskolin at WT A3R [2]; 73.2 ± 2.7 %100 μM forskolin on L90A A3R; 55.3 ± 2.4 %100 μM forskolin on V169A A3R; 70.2 ± 2.0 %100 μM forskolin on M177A A3R; 62.6 ± 2.7 %100 μM forskolin at I249A A3R; 72.0 ± 2.3 %100 μM forskolin at L264A A3R. Besides, the Emin at WT A3R [2] was found to be 35.0 ± 1.6 %100 μM forskolin; on L90A A3R, 43.3 ± 3.2 %100 μM forskolin; at V169A A3R it was 30.9 ± 1.7 %100 μM forskolin; at M177A A3R, 38.6 ± 2.7 %100 μM forskolin; on I249A A3R, 34.9 ± 2.2 %100 μM forskolin; on L264A A3R, 41.1 ± 2.2 %100 μM forskolin.
